Test results reported in article PMC10353187, “Discovery of a new potent oxindole multi-kinase inhibitor among a series of designed 3-alkenyl-oxindoles with ancillary carbonic anhydrase inhibitory activity as antiproliferative agents” (BMC Chemistry, 2023).

What was measured:
Test in all cases: NCI-60 single-dose antiproliferative assay (SRB)
Type in all cases: cell-based
[1] = test system: ACHN; conditions: Homo sapiens, 10 μM single dose, Renal cancer, read-out: Cell Growth inhibition Percent
Method in brief: (§1)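 Readout is sulforhodamine B absorbance at 515 nm after TCA fixation, converted to percent growth versus time-zero (Tz) and control (C) plates and reported as GI%. Compounds were tested once at 10 µM for 48 h in RPMI 1640 containing 5% FBS.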

[2] = test system: CAKI-1; conditions: Homo sapiens; 10 μM single dose; CAKI-1, Renal cancer; read-out: Cell Growth inhibition Percent
Method in brief: as §1

[3] = test system: HOP-92; conditions: Homo sapiens; 10 μM single dose; HOP-92, Non-small cell lung cancer; read-out: Cell Growth inhibition Percent
Method in brief: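 Cells grown in RPMI 1640 with 5% FBS and 2 mM L-glutamine were plated, left 24 h at 37 °C, then exposed to compound at a single 10 µM final concentration for 48 h. Adherent cells were TCA-fixed, SRB-stained and read at 515 nm; growth was expressed relative to time-zero and untreated controls.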

[4] = test system: M14; conditions: Homo sapiens; 10 μM single dose; M14, Melanoma; read-out: Cell Growth inhibition Percent
Method in brief: as §1

[5] = test system: MALME-3 M; conditions: Homo sapiens, 10 μM single dose, Melanoma, read-out: Cell Growth inhibition Percent
Method in brief: as §1

[6] = test system: OVCAR-4; conditions: Homo sapiens; 10 μM single dose; OVCAR-4, Ovarian Cancer; read-out: Cell Growth inhibition Percent
Method in brief: as §1

[7] = test system: PC-3; conditions: Homo sapiens; 10 μM single dose; PC-3, Prostate cancer; read-out: Cell Growth inhibition Percent
Method in brief: as §1

[8] = test system: SF-268; conditions: Homo sapiens; 10 μM single dose; SF-268, CNS cancer; read-out: Cell Growth inhibition Percent
Method in brief: as §1

[9] = test system: SF-539; conditions: Homo sapiens; 10 μM single dose; SF-539, CNS cancer; read-out: Cell Growth inhibition Percent
Method in brief: as §1

[10] = test system: SN12C; conditions: Homo sapiens, 10 μM single dose, Renal cancer, read-out: Cell Growth inhibition Percent
Method in brief: as §1

[11] = test system: SW-620; conditions: Homo sapiens; 10 μM single dose; SW-620, Colon cancer; read-out: Cell Growth inhibition Percent
Method in brief: as §1

[12] = test system: BT-549; conditions: Homo sapiens; 10 μM single dose; BT-549, Breast cancer; read-out: Cell Growth inhibition Percent
Method in brief: as §1

[13] = test system: NCI-H522; conditions: Homo sapiens; 10 μM single dose; NCI-H522, Non-small cell lung cancer; read-out: Cell Growth inhibition Percent
Method in brief: as §1

[14] = test system: OVCAR-8; conditions: Homo sapiens; 10 μM single dose; OVCAR-8, Ovarian Cancer; read-out: Cell Growth inhibition Percent
Method in brief: as §1

[15] = test system: U251; conditions: Homo sapiens, U-251; 10 μM single dose; U251, CNS cancer; read-out: Cell Growth inhibition Percent
Method in brief: as §1

[16] = test system: MDA-MB-435; conditions: Homo sapiens; 10 μM single dose; MDA-MB-435, Melanoma; read-out: Cell Growth inhibition Percent
Method in brief: as §1

[17] = test system: HCT-15; conditions: Homo sapiens; 10 μM single dose; HCT-15, Colon cancer; read-out: Cell Growth inhibition Percent
Method in brief: as §1

[18] = test system: MDA-MB-468; conditions: Homo sapiens; 10 μM single dose; MDA-MB-468, Breast cancer; read-out: Cell Growth inhibition Percent
Method in brief: as §1

## O=C1Nc2ccccc2C1=CNc1ccc(C(=O)O)cc1 [Compound 4c, 4-{[(2-Oxoindolin-3-ylidene)methyl]amino}benzoic acid]
[1]
  inhibition at 10 µM: 1.58%
[2]
  inhibition at 10 µM: 29.1%
[3]
  inhibition at 10 µM: 16.4%
[4]
  inhibition at 10 µM: 2.15%
[5]
  inhibition at 10 µM: 0.23%
[6]
  inhibition at 10 µM: 13.3%
[7]
  inhibition at 10 µM: 7.71%
[8]
  inhibition at 10 µM: 16.4%
[9]
  inhibition at 10 µM: 2.79%
[10]
  inhibition at 10 µM: 24.8%
[11]
  inhibition at 10 µM: 4.95%

## NS(=O)(=O)c1nnc(NC=C2C(=O)Nc3ccccc32)s1 [Compound 4d, 5-{[(2-Oxoindolin-3-ylidene)methyl]amino}-1,3,4-thiadiazole-2-sulfonamide]
[1]
  inhibition at 10 µM: 6.28%
[12]
  inhibition at 10 µM: 1.21%
[2]
  inhibition at 10 µM: 13.5%
[3]
  inhibition at 10 µM: 11.9%
[4]
  inhibition at 10 µM: 6.04%
[13]
  inhibition at 10 µM: 0.13%
[6]
  inhibition at 10 µM: 1.55%
[14]
  inhibition at 10 µM: 0.12%
[7]
  inhibition at 10 µM: 10.7%
[9]
  inhibition at 10 µM: 3.69%
[15]
  inhibition at 10 µM: 0.06%

## NS(=O)(=O)N/C=C1/C(=O)Nc2ccccc21 [Compound 5, 3-(sulfamidmethylene)indoline-2-one]
[1]
  inhibition at 10 µM: 10.9%
[12]
  inhibition at 10 µM: 0.96%
[2]
  inhibition at 10 µM: 11.2%
[3]
  inhibition at 10 µM: 11%
[4]
  inhibition at 10 µM: 2.01%
[13]
  inhibition at 10 µM: 5.36%
[7]
  inhibition at 10 µM: 5.36%
[8]
  inhibition at 10 µM: 2.04%
[15]
  inhibition at 10 µM: 2.06%

## O=C1Nc2ccccc2C1=CNc1ccc(C(=O)Nc2ccc(S(=O)(=O)Nc3ncccn3)cc2)cc1 [Compound 9b, 4-{[(2-Oxoindolin-3-ylidene)methyl]amino}-N-{4-[N-(pyrimidin-2-yl)sulfamoyl]phenyl}benzamide]
[1]
  inhibition at 10 µM: 10.5%
[12]
  inhibition at 10 µM: 27.1%
[2]
  inhibition at 10 µM: 27.6%
[3]
  inhibition at 10 µM: 4.65%
[4]
  inhibition at 10 µM: 1.44%
[5]
  inhibition at 10 µM: 2.09%
[6]
  inhibition at 10 µM: 7.67%
[7]
  inhibition at 10 µM: 7.1%
[8]
  inhibition at 10 µM: 3.48%
[9]
  inhibition at 10 µM: 5.04%
[10]
  inhibition at 10 µM: 20.5%

## NS(=O)(=O)c1ccc(NCc2ccc(NC=C3C(=O)Nc4ccccc43)cc2)cc1 [Compound 11a, 4-{[4-({[2-Oxoindolin-3-ylidene]methyl}amino)benzyl]amino}benzenesulfonamide]
[1]
  inhibition at 10 µM: 7.22%
[2]
  inhibition at 10 µM: 34.7%
[5]
  inhibition at 10 µM: 3.16%
[16]
  inhibition at 10 µM: 2.04%
[6]
  inhibition at 10 µM: 12.6%
[7]
  inhibition at 10 µM: 7.36%
[8]
  inhibition at 10 µM: 11.3%
[10]
  inhibition at 10 µM: 22.9%

## O=C1Nc2ccccc2C1=CNc1ccc(CNc2ccc(S(=O)(=O)Nc3ncccn3)cc2)cc1 [Compound 11b, 4-{[4-({[2-Oxoindolin-3-ylidene]methyl}amino)benzyl]amino}-N-(pyrimidin-2-yl)benzenesulfonamide]
[1]
  inhibition at 10 µM: 16.7%
[12]
  inhibition at 10 µM: 6.46%
[2]
  inhibition at 10 µM: 48.4%
[17]
  inhibition at 10 µM: 9.43%
[3]
  inhibition at 10 µM: 15.4%
[4]
  inhibition at 10 µM: 0.4%
[16]
  inhibition at 10 µM: 32%
[18]
  inhibition at 10 µM: 7.66%
[13]
  inhibition at 10 µM: 6.92%
[6]
  inhibition at 10 µM: 11.5%
[14]
  inhibition at 10 µM: 1.39%
[7]
  inhibition at 10 µM: 14.2%
[8]
  inhibition at 10 µM: 1.02%
[11]
  inhibition at 10 µM: 4.6%
[15]
  inhibition at 10 µM: 14.4%

## O=C1Nc2ccccc2C1=CNc1ccc(C(=O)C=CNc2nccs2)cc1 [Compound 13c, 3-{[(4-{3-[Thiazol-2-ylamino]acryloyl}phenyl)amino]methylene}indolin-2-one]
[12]
  inhibition at 10 µM: 13.6%
[2]
  inhibition at 10 µM: 30.8%
[17]
  inhibition at 10 µM: 12%
[3]
  inhibition at 10 µM: 11.4%
[16]
  inhibition at 10 µM: 1.15%
[18]
  inhibition at 10 µM: 23.5%
[13]
  inhibition at 10 µM: 2.31%
[6]
  inhibition at 10 µM: 3.49%
[7]
  inhibition at 10 µM: 15.3%
[9]
  inhibition at 10 µM: 1.96%
[10]
  inhibition at 10 µM: 11.6%

## O=C(Nc1ccc(NC=C2C(=O)Nc3ccccc32)cc1)Nc1nccs1 [Compound 15c, 1-{4-[((2-Oxoindolin-3-ylidene)methyl)amino]phenyl}-3-(thiazol-2-yl)urea]
[1]
  inhibition at 10 µM: 59.3%
[2]
  inhibition at 10 µM: 67.1%
[17]
  inhibition at 10 µM: 71%
[3]
  inhibition at 10 µM: 50.2%
[4]
  inhibition at 10 µM: 81.5%
[5]
  inhibition at 10 µM: 53.1%
[16]
  inhibition at 10 µM: 153%
[18]
  inhibition at 10 µM: 102%
[6]
  inhibition at 10 µM: 59.4%
[14]
  inhibition at 10 µM: 44.3%
[7]
  inhibition at 10 µM: 31.4%
[8]
  inhibition at 10 µM: 22.8%
[9]
  inhibition at 10 µM: 66.4%
[10]
  inhibition at 10 µM: 32%
[11]
  inhibition at 10 µM: 78.6%
[15]
  inhibition at 10 µM: 58%
